Data as given in US9173875B2, “Treatment for nicotine-induced lung disease using peroxisome proliferator-activated receptor gamma agonists” (Los Angeles Biomedical Research Institute at Harbor-UCLA …, priority 2006, dated 2015).

Key:
WI38 cells [1] = assay: Triglyceride uptake assay ([3H]triolein) in WI38 cells; assay type: cell-based, human; settings: concomitant treatment; RGZ 1×10^−5 M, PTHrP 5×10^−7 M, DBcAMP 1×10^−4 M; nicotine 1×10^−9 M, 7 days
Procedure: (§1) The human embryonic cell line WI38 was obtained from American Type Culture Collection (Rockville, Md.). Cells were grown in MEM plus 10% FBS at 37° C. in six-well plates, four-well slides, and 60- and 100-mm culture dishes as needed.
The method used to quantitate triglyceride uptake by fetal rat lung fibroblasts has been described previously (Torday et al. (1995) Biochim Biophys Acta 1254: 198-206). Briefly, culture medium was replaced with DMEM containing 20% adult rat serum mixed with [3H]triolein (5 μCi/ml). The cells were incubated at 37° C. in 5% CO2+balance air for 4 h. At the termination of the incubation, the medium was decanted, the cells were rinsed twice with 1 ml of ice-cold MEM, and the cells were removed from the culture plate after a 5- to 10-min incubation with 2 ml of a 0.05% trypsin solution. An aliquot of the cell suspension was taken for protein assay (Bradford (1976) Anal Biochem 72: 248-254), and the remaining cell suspension was extracted for neutral lipid content.

WI38 cells [2] = assay: Western blot of lipogenic and myogenic marker proteins in WI38 cells (nicotine with or without lipogenic pathway agonists); assay type: cell-based, human; settings: PTHrP 5×10^−7 M, DBcAMP 1×10^−4 M, RGZ 1×10^−5 M
Procedure: as §1
Western blotting was performed with modifications of methods described previously (Ayad and Wong (1998) Crit. Care Med 26: 1277-1282). […] Equal amounts of the protein (25 μg) from the supernatant were dissolved in electrophoresis sample buffer and were subjected to SDS-PAGE (4-12% gradient) followed by electrophoretic transfer to a nitrocellulose membrane. Nonspecific binding of antibody was blocked by washing with Tris-buffered saline (TBS) containing 5% milk for 1 h. The blot was then subjected to two brief washes with TBS plus 0.5% Tween 20, incubated in TBS plus 0.1% Tween 20 and the specific primary antibodies (PPAR 1:2,000, Alexis Biochemicals, San Diego, Calif.; -SMA 1:50,000, Sigma; ADRP 1:3,000, a kind gift from Dr. Constantine Londos, National Institute of Diabetes and Digestive and Kidney Diseases) overnight at 4° C. Blots were then washed in TBS plus 0.1% Tween 20 and then incubated for 1 h in secondary antibody, washed, and developed with a chemiluminescent substrate (ECL; Amersham, Arlington Heights, Ill.) following the manufacturer's protocol.

WI38 cells [3] = assay: Reversal experiment, triglyceride (triolein) uptake by WI38 cells; assay type: cell-based, human; settings: RGZ 10^−5 M, PTHrP 5×10^−7 M, DBcAMP 1×10^−5 M for 7 days after nicotine
WI38 cells [4] = assay: Reversal of nicotine-induced LIF-to-MYF transdifferentiation in WI38 cells, Western analysis; settings: for reversal of nicotine-induced decrease in PTHrP receptor expression: 7 days agonist after 7 days nicotine 10^−9 M (Example 3); for reversal of nicotine-induced decrease in PPARγ expression / reversal of nicotine-induced increase in αSMA expression: 7 days agonist after 7 days nicotine (Example 3); for reversal of nicotine-induced changes in expression of PTHrP receptor, PPARγ, ADRP, αSMA and calponin: RGZ 1×10^−5 M, PTHrP 5×10^−7 M, DBcAMP 1×10^−5 M for 7 days after 7 days nicotine
Procedure: The human embryonic cell line WI38 was obtained from the American Type Culture Collection (Rockville, Md.). Cells were grown in minimum essential medium (MEM) +10% fetal bovine serum at 37° C. in six-well plates, two well slides, and 60-mm and 100-mm culture dishes, as needed. […] Subsequently, the cells were treated with rosiglitazone (RGZ) (1×10^−5 M) (a PPARγ agonist), PTHrP (5×10^−7 M), or DBcAMP (1×10^−5 M) for 7 days, and the expression of PTHrP receptor, PPARγ, ADRP, calponin, and cSMA was determined by Western analysis and immunohistochemistry. Simultaneously, fibroblast function was characterized by measuring their capacity to take up triglycerides. Some experiments were performed in the presence of a specific PPARγ antagonist, GW9662. Medium containing fresh chemicals was added daily, and at the end of the experimental period the cells were processed as needed.
For Western blotting, cells were lysed using an extraction buffer [10 mM tris (hydroxymethyl) aminomethane (Tris, pH 7.5), 0.25 M sucrose, 1 mM EDTA, 5 mM benzamidine, 2 mM phenylmethylsulfonyl fluoride, and 10 (j.tg/ml each of pepstatin A, aprotinin, and leupeptin], and centrifuged at 140 g for 10 min (4° C.). Equal amounts of the protein (25 μg) from the supernatant were dissolved in electrophoresis sample buffer and were subjected to sodium dodecyl sulfate-polyacrylamide (4%-12% gradient) gel electrophoresis (SDS-PAGE) followed by electrophoretic transfer to a nitrocellulose memane. The nonspecific binding of antibody was blocked by washing with Tris-buffered saline (TBS) containing 0.1% Tween 20 (TBST) and 5% milk for 1 h. The blot was then subjected to two brief washes with TBST plus 0.5% Tween 20, incubated in TBST plus 0.1% Tween 20 and the specific primary antibodies (PPARγ 1:2000, Alexis Biochemicals, San Diego, Calif.; cSMA 1:50,000, Sigma, St. Louis, Mo.: ADRP 1:3000) overnight at 4° C. Blots were then washed in TBST plus 0.1% Tween 20 and then incubated for 1 h in secondary antibody, washed, and developed with a chemiluminescent substrate [enhanced chemiluminescence (ECL); Amersham, Arlington Heights, Ill.] following the manufacturer's protocol. The densities of the specific protein bands were quantified using a scanning densitometer (Eagle Eye II still video system, Stratagene, La Jolla, Calif.).

WI38 cells [5] = assay: Reversal experiment, immunofluorescence double staining (ADRP or lipid droplets and αSMA) in WI38 cells; assay type: cell-based, human; settings: RGZ 1×10^−5 M, DBcAMP 1×10^−5 M, 7 days after nicotine
Procedure: Cells were grown in minimum essential medium (MEM) +10% fetal bovine serum at 37° C. in six-well plates, two well slides, and 60-mm and 100-mm culture dishes, as needed. […] Subsequently, the cells were treated with rosiglitazone (RGZ) (1×10^−5 M) (a PPARγ agonist), PTHrP (5×10^−7 M), or DBcAMP (1×10^−5 M) for 7 days, and the expression of PTHrP receptor, PPARγ, ADRP, calponin, and cSMA was determined by Western analysis and immunohistochemistry. Simultaneously, fibroblast function was characterized by measuring their capacity to take up triglycerides. Some experiments were performed in the presence of a specific PPARγ antagonist, GW9662. Medium containing fresh chemicals was added daily, and at the end of the experimental period the cells were processed as needed.
The lipogenic and myogenic status of cultured WI38 cells was assessed by simultaneous staining for either lipid droplets or ADRP and αSMA. Lipids were detected by using either oil red 0 staining or ADRP expression (polyclonal anti-ADRP 1:500), and αSMA expression was assessed by using anti-αSMA (1:1000, mouse monoclonal IgG2a, Sigma, catalog No. A2547) primary antibody. […] At the end of the experimental period, slides were fixed in freshly prepared 4% paraformaldehyde. […] Slides were rinsed three times for 5 min and then mounted and visualized under a fluorescence microscope.

Molecule	prevention of nicotine-induced decrease in triglyceride uptake (WI38 cells [1])	prevention of nicotine-induced decreases in PTHrP receptor and PPAR and increase in α-SMA protein expression (WI38 cells [2])	block of nicotine-induced decrease in triolein uptake (WI38 cells [3])	reversal of nicotine-induced decrease in PTHrP receptor expression (WI38 cells [4])	reversal of nicotine-induced decrease in PPARγ expression (WI38 cells [4])	reversal of nicotine-induced increase in αSMA expression (WI38 cells [4])	reversal of nicotine-induced changes in expression of PTHrP receptor, PPARγ, ADRP, αSMA and calponin (WI38 cells [4])	reversal of nicotine-induced decreases in ADRP and lipid droplet staining and increase in αSMA staining (WI38 cells [5])
PTHrP-(1-34)	effectively prevented	completely prevented	at least partially blocked	reversed	reversed	reversed	almost completely reversed	
CCCC(=O)Nc1ncnc2c1ncn2[C@@H]1O[C@@H]2COP(=O)(O)O[C@H]2[C@H]1OC(=O)CCC [DBcAMP, dibutyryl cAMP]	effectively prevented	completely prevented	at least partially blocked	reversed	did not reach statistical significance	reversed	almost completely reversed	reversed
